For one compound, Km results are on record in paper PMC2709226 (Plant Molecular Biology, 2008).

Assay [1] has as its target acINV (Allium cepa, UniProt O81083). The experiment in a line: biochemical.
Assay [2] concerns the target acINV (Allium cepa, UniProt O81083, W440Y). Put plainly: biochemical.

Broadly, the Km is the concentration of substrate that gives half-maximal velocity.

Molecules are shown by their SMILES.

Consider `OC[C@H]1O[C@@](CO)(O[C@H]2O[C@H](CO)[C@@H](O)[C@H](O)[C@H]2O)[C@@H](O)[C@@H]1O` [sucrose], for which the Km stood at 5.8 ± 1.9 mM on acINV [1] and 8.8 ± 2.4 mM on acINV [2].
